Paper PMC9133015 (Nature Communications, 2022)
Several values for one entry are separate records, joined by “and”; a condition that tells them apart may be missing. Equal entries are not always repeated. Entries after “also recorded” stand apart in the source; their conditions may differ.

What was measured:
22Rv1 cells = experiment: Real-time quantitative PCR (RRS1, GRWD1, CCNG2, YPEL3 mRNA); assay type: cell-based, human; settings: replicates
DU145 cells = experiment: as above; assay type: cell-based, human
p-4E-BP1 (Thr37/46) = experiment: Western blotting analysis of indicated proteins in PCa cells; assay type: cell-based, human; settings: 48 h treatment
DYRK1A = biological target: T1, DYRK1A (Homo sapiens, UniProt Q13627); experiment: DYRKs kinase activity assay (33P-ATP, DYRKtide substrate): DYRK1A; assay type: biochemical
T1 construct: purchased Reaction Biology Corporation (assay service)

DYRK3 = biological target: T2, DYRK3 (Homo sapiens, UniProt O43781); experiment: DYRKs kinase activity assay (33P-ATP, DYRKtide substrate): DYRK3; assay type: biochemical
T2 construct: purchased Reaction Biology Corporation (assay service)
T2 sequence (O43781 1-588): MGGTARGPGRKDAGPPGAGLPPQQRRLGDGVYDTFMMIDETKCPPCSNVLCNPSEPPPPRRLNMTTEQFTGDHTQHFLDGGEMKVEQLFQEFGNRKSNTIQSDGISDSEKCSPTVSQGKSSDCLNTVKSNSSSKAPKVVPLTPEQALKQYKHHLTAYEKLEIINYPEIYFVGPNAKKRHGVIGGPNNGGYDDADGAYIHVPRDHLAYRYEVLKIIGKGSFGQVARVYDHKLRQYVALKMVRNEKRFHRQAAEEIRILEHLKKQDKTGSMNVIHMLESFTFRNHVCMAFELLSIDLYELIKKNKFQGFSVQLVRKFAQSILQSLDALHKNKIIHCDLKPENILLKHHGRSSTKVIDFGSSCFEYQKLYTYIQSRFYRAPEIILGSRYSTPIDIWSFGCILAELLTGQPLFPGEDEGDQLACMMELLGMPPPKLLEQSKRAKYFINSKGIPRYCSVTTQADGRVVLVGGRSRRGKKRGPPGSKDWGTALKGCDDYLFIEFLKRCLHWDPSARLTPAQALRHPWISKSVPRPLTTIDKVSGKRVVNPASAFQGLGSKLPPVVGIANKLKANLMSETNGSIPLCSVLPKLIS

ICR mice = experiment: Acute toxicity study; assay type: in vivo
[1] = ICR mice, single oral dose 2500, 5000, 10,000 mg/kg, 14 days

CCN1CCN(C(=O)c2ccc(Nc3ncc(F)c(-c4ccc5nc(N(C)C)sc5c4)n3)nc2)CC1 [YK-2-69]
Relative mRNA levels CCNG2 (22Rv1 cells; 22Rv1, 1 μM): 2.36 and 2.34 and 2.68 | Relative mRNA levels GRWD1 (22Rv1 cells; 22Rv1, 1 μM): 0.83 and 0.9 and 0.89 | Relative mRNA levels RRS1 (22Rv1 cells; 22Rv1, 1 μM): 0.87 and 0.83 and 0.82 | Relative mRNA levels YPEL3 (22Rv1 cells; 22Rv1, 1 μM): 1.18 and 1.26 and 1.19 | Relative mRNA levels CCNG2 (22Rv1 cells; 22Rv1, 2 μM): 4.36 and 5.2 and 4.62 | Relative mRNA levels GRWD1 (22Rv1 cells; 22Rv1, 2 μM): 0.79 and 0.78 and 0.7 | Relative mRNA levels RRS1 (22Rv1 cells; 22Rv1, 2 μM): 0.73 and 0.77 and 0.71 | Relative mRNA levels YPEL3 (22Rv1 cells; 22Rv1, 2 μM): 1.68 and 1.63 and 1.74 | Relative mRNA levels CCNG2 (22Rv1 cells; 22Rv1, 4 μM): 8.94 and 9.9 and 8.92 | Relative mRNA levels GRWD1 (22Rv1 cells; 22Rv1, 4 μM): 0.69 and 0.68 and 0.62 | Relative mRNA levels RRS1 (22Rv1 cells; 22Rv1, 4 μM): 0.63 and 0.68 | Relative mRNA levels YPEL3 (22Rv1 cells; 22Rv1, 4 μM): 2.48 and 2.53 and 2.64 | Relative mRNA levels CCNG2 (DU145 cells; DU145, 2 μM): 1.61 and 1.59 and 1.77 | Relative mRNA levels GRWD1 (DU145 cells; DU145, 2 μM): 0.86 and 0.88 and 0.9 | Relative mRNA levels RRS1 (DU145 cells; DU145, 2 μM): 0.88 and 0.78 and 0.86 | Relative mRNA levels YPEL3 (DU145 cells; DU145, 2 μM): 1.25 and 1.23 and 1.29 | Relative mRNA levels CCNG2 (DU145 cells; DU145, 4 μM): 1.7 and 1.66 and 1.89 | Relative mRNA levels GRWD1 (DU145 cells; DU145, 4 μM): 0.79 and 0.71 | Relative mRNA levels RRS1 (DU145 cells; DU145, 4 μM): 0.68 and 0.7 and 0.71 | Relative mRNA levels YPEL3 (DU145 cells; DU145, 4 μM): 2.68 and 2.63 and 2.74 | Relative mRNA levels CCNG2 (DU145 cells; DU145, 8 μM): 1.91 and 1.83 and 2.04 | Relative mRNA levels GRWD1 (DU145 cells; DU145, 8 μM): 0.58 and 0.63 and 0.67 | Relative mRNA levels RRS1 (DU145 cells; DU145, 8 μM): 0.58 and 0.65 | Relative mRNA levels YPEL3 (DU145 cells; DU145, 8 μM): 3.48 and 3.53 and 3.64 | phosphorylation of 4E-BP1 (p-4E-BP1 (Thr37/46)): inhibited the phosphorylation of 4E-BP1 in a dose-dependent manner | IC50 (DYRK1A): > 1000 nM | % Inhibition DYRK1A (DYRK1A; 0.000508053 µM, duplicates): -3.57% and 0.43% | % Inhibition DYRK1A (DYRK1A; 0.00152416 µM, duplicates): -1.37% and 1.70% | % Inhibition DYRK1A (DYRK1A; 0.00457247 µM, duplicates): 3.49% and -1.24% | % Inhibition DYRK1A (DYRK1A; 0.0137174 µM, duplicates): 0.24% and -4.62% | % Inhibition DYRK1A (DYRK1A; 0.0411523 µM, duplicates): -1.12% and -1.40% | % Inhibition DYRK1A (DYRK1A; 0.123457 µM, duplicates): 14.11% | inhibition at 0.123457 µM (DYRK1A; 0.123457 µM, duplicates): 10.3% | % Inhibition DYRK1A (DYRK1A; 0.37037 µM, duplicates): 34.28% | inhibition at 0.37037 µM (DYRK1A; 0.37037 µM, duplicates): 26% | % Inhibition DYRK1A (DYRK1A; 1.11111 µM, duplicates): 40.80% | inhibition at 1.11111 µM (DYRK1A; 1.11111 µM, duplicates): 45.5% | % Inhibition DYRK1A (DYRK1A; 3.33333 µM, duplicates): 66.09% | inhibition at 3.33333 µM (DYRK1A; 3.33333 µM, duplicates): 64.9% | % Inhibition DYRK1A (DYRK1A; 10 µM, duplicates): 69.07% | inhibition at 10 µM (DYRK1A; 10 µM, duplicates): 68.2% | selectivity over DYRK1A (DYRK1A; vs DYRK2): more than 100 fold | IC50 (DYRK3): > 1000 nM | % Inhibition DYRK3 (DYRK3; 0.000762079 µM, duplicates): -8.00% and -1.03% | % Inhibition DYRK3 (DYRK3; 0.00228624 µM, duplicates): -10.03% and -2.95% | % Inhibition DYRK3 (DYRK3; 0.00685871 µM, duplicates): -8.21% and -7.66% | % Inhibition DYRK3 (DYRK3; 0.0205761 µM, duplicates): -2.65% and -5.02% | % Inhibition DYRK3 (DYRK3; 0.0617284 µM, duplicates): 11.61% | inhibition at 0.0617284 µM (DYRK3; 0.0617284 µM, duplicates): 6.58% | % Inhibition DYRK3 (DYRK3; 0.185185 µM, duplicates): 29.90% | inhibition at 0.185185 µM (DYRK3; 0.185185 µM, duplicates): 28.2% | % Inhibition DYRK3 (DYRK3; 0.555556 µM, duplicates): 51.81% | inhibition at 0.555556 µM (DYRK3; 0.555556 µM, duplicates): 49.4% | % Inhibition DYRK3 (DYRK3; 1.66667 µM, duplicates): 53.48% | % Inhibition DYRK3 (DYRK3; 5 µM, duplicates): 56.27% | inhibition at 5 µM (DYRK3; 5 µM, duplicates): 56.1% | inhibition at 1.66667 µM (DYRK3; read-out: % Inhibition DYRK3, 1.66667 µM, duplicates): 50.8% | selectivity over DYRK3 (DYRK3; vs DYRK2): more than 100 fold | Figure S9b Heart (organ weight, individual mice) (ICR mice; 2500 mg/kg): 0.094 and 0.137 and 0.125 and 0.146 and 0.118 and 0.152 and 0.105 and 0.097 and 0.092 and 0.115 | Figure S9b Kidney (organ weight, individual mice) (ICR mice; 2500 mg/kg): 0.384 and 0.403 and 0.421 and 0.413 and 0.636 and 0.576 and 0.731 and 0.682 and 0.613 | Figure S9b Liver (organ weight, individual mice) (ICR mice; 2500 mg/kg): 1.351 and 1.216 and 1.284 and 1.094 and 1.159 and 1.384 and 1.751 and 1.369 and 1.52 and 1.491 | Figure S9b Lung (organ weight, individual mice) (ICR mice; 2500 mg/kg): 0.316 and 0.435 and 0.421 and 0.358 and 0.299 and 0.367 and 0.294 and 0.341 and 0.276 and 0.336 | Figure S9b Spleen (organ weight, individual mice) (ICR mice; 2500 mg/kg): 0.176 and 0.186 and 0.205 and 0.201 and 0.214 and 0.253 and 0.196 and 0.221 and 0.206 and 0.257 | Figure S9a body weight of individual mice (ICR mice; 2500 mg/kg, Day 0): 19.9 and 20.5 and 20.1 (2×) and 20 and 19.6 and 19.8 and 20.3 and 20.6 and 21.1 | Figure S9a body weight of individual mice (ICR mice; 2500 mg/kg, Day 2): 20.2 (2×) and 20.8 and 20.3 (2×) and 20.4 and 19.8 and 20.6 and 20.9 and 21.5 | Figure S9a body weight of individual mice (ICR mice; 2500 mg/kg, Day 4): 20.8 and 21.3 (2×) and 20.5 and 20.6 (2×) and 20.1 and 20.4 and 21.1 and 21.8 | Figure S9a body weight of individual mice (ICR mice; 2500 mg/kg, Day 6): 21.3 and 21.7 and 20.6 and 20.8 and 20.2 and 20.7 and 21.5 and 21.9 and 22.2 and 20.9 | Figure S9a body weight of individual mice (ICR mice; 2500 mg/kg, Day 8): 22.3 and 22.5 and 20.7 and 21.1 and 20.3 and 21 and 21.8 and 22.2 and 22.6 and 21.5 | Figure S9a body weight of individual mice (ICR mice; 2500 mg/kg, Day 10): 22.9 and 23.2 and 20.9 and 21.4 and 20.5 and 21.3 and 22.2 and 22.5 and 23.4 and 21.9 | Figure S9a body weight of individual mice (ICR mice; 2500 mg/kg, Day 12): 23.5 and 23.9 and 21.2 and 21.7 and 20.6 and 21.6 and 22.4 (2×) and 22.9 and 23.8 | Figure S9a body weight of individual mice (ICR mice; 2500 mg/kg, Day 14): 24.2 and 24.5 and 21.4 and 22 and 20.9 and 21.8 and 22.9 (2×) and 23.4 and 24.3 | Figure S9b Heart (organ weight, individual mice) (ICR mice; 5000 mg/kg): 0.126 and 0.135 and 0.116 and 0.143 and 0.138 and 0.106 and 0.112 and 0.096 and 0.094 | Figure S9b Kidney (organ weight, individual mice) (ICR mice; 5000 mg/kg): 0.369 and 0.416 and 0.389 and 0.444 and 0.502 and 0.384 and 0.569 and 0.612 and 0.656 and 0.715 | Figure S9b Liver (organ weight, individual mice) (ICR mice; 5000 mg/kg): 1.316 and 1.128 and 1.421 and 1.266 and 1.156 and 1.841 and 1.669 and 1.581 and 1.384 and 1.492 | Figure S9b Lung (organ weight, individual mice) (ICR mice; 5000 mg/kg): 0.401 and 0.386 and 0.456 and 0.512 and 0.379 and 0.452 and 0.253 and 0.302 and 0.281 and 0.317 | Figure S9b Spleen (organ weight, individual mice) (ICR mice; 5000 mg/kg): 0.2 and 0.186 and 0.199 and 0.214 and 0.231 and 0.25 and 0.241 and 0.267 | Figure S9a body weight of individual mice (ICR mice; 5000 mg/kg, Day 0): 21.4 and 20.5 (3×) and 19.7 and 20.2 and 19.6 and 19.9 and 20.3 and 21.1 | Figure S9a body weight of individual mice (ICR mice; 5000 mg/kg, Day 2): 21.7 and 20.9 and 19.9 and 20.4 and 19.6 and 20.3 and 20.7 and 20.6 and 21.5 and 20.8 | Figure S9b Heart (organ weight, individual mice) (ICR mice; 10000 mg/kg): 0.115 and 0.099 and 0.142 and 0.128 and 0.122 and 0.129 and 0.089 and 0.096 and 0.124 and 0.106 | Figure S9b Kidney (organ weight, individual mice) (ICR mice; 10000 mg/kg): 0.412 and 0.389 and 0.476 and 0.423 and 0.403 and 0.621 and 0.586 and 0.639 and 0.7 and 0.641 | Figure S9b Liver (organ weight, individual mice) (ICR mice; 10000 mg/kg): 1.352 and 1.294 and 1.186 and 1.416 and 1.222 and 1.613 and 1.358 and 1.429 and 1.61 and 1.389 | Figure S9b Lung (organ weight, individual mice) (ICR mice; 10000 mg/kg): 0.418 and 0.361 and 0.395 and 0.475 and 0.486 and 0.369 and 0.384 and 0.416 and 0.336 and 0.333 | Figure S9b Spleen (organ weight, individual mice) (ICR mice; 10000 mg/kg): 0.181 and 0.194 and 0.176 and 0.189 and 0.201 and 0.235 and 0.214 and 0.226 and 0.257 | maximal tolerable dose (ICR mice; ICR mice, single oral dose): more than 10,000 mg/kg | abnormality and death (ICR mice; [1]): no mice died; also recorded: No abnormality and death were observed | body weight and main organs vs control (in words) (ICR mice; [1]): no difference was detected
